Molecules are shown by their SMILES. Bounds are passed on as bounds.

The assay relates to HBV. Put plainly: HBV infection in HepG2-NTCP cells (HBeAg AlphaLISA in supernatants). It counts as cell-based. The following applies: Hepatitis B virus, 192 h; HBV infection of HepG2-NTCP cells; HBeAg in supernatants at day 8 post infection; read-out: Cellular EC50. The procedure, abridged: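 HepG2-NTCP A3 cells were pre-incubated 2 h with 3-fold serially diluted compounds, then infected with HBV at 2000 GE/cell with 4% PEG (0.5% DMSO final). After washing on day 1, cells stayed in 2.5% DMSO medium; supernatant HBeAg measured by AlphaLISA on day 8, EC50 versus DMSO controls.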
`CN1[C@H](C2CCCCC2)CN(c2ccccc2)c2cc(OCc3cn(C)cn3)c(-c3ccc(F)c(C(=O)O)c3)cc2S1(=O)=O` [Example 389, (R)-5-(3-cyclohexyl-2-methyl-7-((1-methyl-1H-imidazol-4-yl)methoxy)-1,1-dioxido-5-phenyl-2,3,4,5-tetrahydrobenzo[f][1,2,5]thiadiazepin-8-yl)-2-fluorobenzoic acid]: the EC50 lay within 100 to 1000 nM. The figure for `CN1[C@H](CC2CCC2)CN(c2ccccc2)c2cc(Cl)c(-c3ccc(Cl)c(C(=O)O)c3)cc2S1(=O)=O` [Example 76] is 100 to 1000 nM; for `Cc1ccc(Cl)c(Oc2cc3c(cc2-c2ccc(F)c(C(=O)O)c2)S(=O)(=O)N(C)[C@H](CC(C)C)CN3c2ccccc2)c1` [Example 436] it is below 100 nM. As for `CC(C)C[C@@H]1CN(c2ccccc2)c2cc(-c3ccccc3F)c(-c3ccc(F)c(C(=O)O)c3)cc2S(=O)(=O)N1C` [Example 576], the EC50 is below 100 nM. As for `CC(C)CC1CN(c2ccccc2)c2cc(Cl)c(-c3cccc(C(=O)O)c3)cc2S(=O)(=O)N1C` (stereo not shown) [Example 33], the figure is 100 to 1000 nM. The figure for `CN1[C@H](C(C)(C)C)CN(c2ccccc2)c2cc(Cl)c(-c3ccc(F)c(C(=O)O)c3)cc2S1(=O)=O` [Example 85, (R)-5-(3-(tert-butyl)-7-chloro-2-methyl-1,1-dioxido-5-phenyl-2,3,4,5-tetrahydrobenzo[f][1,2,5]thiadiazepin-8-yl)-2-fluorobenzoic acid] is below 100 nM; for `CCCCCCCC[C@@H]1CN(c2ccccc2)c2cc(Cl)c(-c3cc(F)c(F)c(C(=O)O)c3)cc2S(=O)(=O)N1C` [Example 83] it is above 1000 nM. The figure for `O=C(O)c1cccc(-c2cc3c(cc2F)N(c2ccccc2)C[C@H]2C[C@@H](C(F)(F)F)CN2S3(=O)=O)c1` [Example 9] is 100 to 1000 nM. As for `CN1[C@H](C2CCCCC2)CN(c2ccccc2)c2cc(N3CC4(CCCC4)C3)c(-c3ccc(F)c(C(=O)O)c3)cc2S1(=O)=O` [Example 533], the EC50 was in the range of 100 to 1000 nM.

For the compound `CN1[C@H](C2CC(F)(F)C2)CN(c2ccccc2)c2cc(Cl)c(-c3ccc(F)c(C(=O)O)c3)cc2S1(=O)=O` [Example 30], the EC50 lay in the range of 100 to 1000 nM.

On to `CSc1cc2c(cc1-c1cccc(C(=O)O)c1)S(=O)(=O)N1CC(C)(C)CC1CN2c1ccccc1` (stereo not shown) [Example 19], for which the EC50 was 100 to 1000 nM. As for `CN1C[C@@H](C2CCCCC2)N(C)S(=O)(=O)c2cc(-c3ccc(F)c(C(=O)O)c3)c(-c3ccccc3F)cc21` [Example 581], the figure is 100 to 1000 nM; as for `CN1[C@H](C2CCCCC2)CN(c2cncnc2)c2cc(Cl)c(-c3ccc(F)c(C(=O)O)c3)cc2S1(=O)=O` [Example 286], 100 to 1000 nM. Consider `CN1[C@H](C2CCCCC2)CN(c2ccccc2)c2cc(OC3CC4(CCC4)C3)c(-c3ccc(F)c(C(=O)O)c3)cc2S1(=O)=O` [Example 377], for which the EC50 is below 100 nM. As for `CN1[C@H](C2CCCCC2)CN(c2ccc(OC(F)(F)F)cc2)c2cc(Cl)c(-c3ccc(F)c(C(=O)O)c3)cc2S1(=O)=O` [Example 292], the EC50 was below 100 nM.

As for `CN1[C@H](C2CCCCC2)CN(c2ccccc2)c2cc(C3CCNCC3)c(-c3ccc(F)c(C(=O)O)c3)cc2S1(=O)=O` [Example 596], the concentration giving a half-maximal response (EC50) is above 1000 nM.

For `Cc1ncc(N2C[C@@H](C3CCCCC3)N(C)S(=O)(=O)c3cc(-c4ccc(F)c(C(=O)O)c4)c(Cl)cc32)cn1` [Example 287], the EC50 was 100 to 1000 nM. For `CN1[C@H](C2CCCCC2)CN(c2ccccc2)c2cc(F)c(-c3ccc(N)c(C(=O)O)c3)cc2S1(=O)=O` [Example 158], the EC50 was 100 to 1000 nM. As to `CCCCOc1cc2c(cc1-c1ccc(F)c(C(=O)O)c1)S(=O)(=O)N(C)[C@H](C1CCCCC1)CN2c1ccccc1` [Example 350], the EC50 was below 100 nM.

For `COCCOc1cc2c(cc1-c1cc(NC(=O)OCC3CC(F)(F)C3)c(C(=O)O)s1)S(=O)(=O)N(C)[C@H](C1CCCCC1)CN2c1ccccc1` [Example 519], the EC50 was below 100 nM. Turning to `CCO[C@H](C)[C@@H]1CN(c2ccccc2)c2cc(Cl)c(-c3ccc(F)c(C(=O)O)c3)cc2S(=O)(=O)N1C` [Example 92], the EC50 lay in the range of 100 to 1000 nM. `Cc1sc(-c2cc3c(cc2Cl)N(c2ccccc2)C[C@@H](C2CCCCC2)N(C)S3(=O)=O)cc1C(=O)O` [Example 122]: the EC50 was below 100 nM.

Turning to `CC(C)CC1CN(c2cccc(F)c2)c2cc(Cl)c(-c3cccc(C(=O)O)c3)cc2S(=O)(=O)N1C` (stereo not shown) [Example 329], the EC50 was 100 to 1000 nM.

Turning to `CCCCC1CN(c2ccccc2)c2cc(C(F)(F)F)c(-c3ccc(F)c(C(=O)O)c3)cc2S(=O)(=O)N1C` (stereo not shown) [Example 568, 5-(3-butyl-2-methyl-1,1-dioxido-5-phenyl-7-(trifluoromethyl)-2,3,4,5-tetrahydrobenzo[f][1,2,5]thiadiazepin-8-yl)-2-fluorobenzoic acid], the EC50 is 100 to 1000 nM.

Take `CC(C)C[C@@H]1CN(c2ccccc2)c2cc(N3CCCc4ccccc43)c(-c3ccc(Cl)c(C(=O)O)c3)cc2S(=O)(=O)N1C` [Example 557]: the EC50 was 100 to 1000 nM.

For `CN1[C@H](C2CCCCC2)CN(c2ccccc2)c2cc(Cl)c(-c3ccc(NS(=O)(=O)CCC(F)(F)F)c(C(=O)O)c3)cc2S1(=O)=O` [Example 268], the EC50 was below 100 nM.

Regarding `CC(C)C[C@@H]1CN(C(C)C)c2cc(Oc3ccccc3F)c(-c3ccc(F)c(C(=O)O)c3)cc2S(=O)(=O)N1C` [Example 468], the EC50 lay in the range of 100 to 1000 nM. Regarding `CCCC[C@@H]1CN(c2ccccc2)c2cc(F)c(-c3ccc(N(C)C)c(C(=O)O)c3)cc2S(=O)(=O)N1C` [Example 523], the EC50 was 100 to 1000 nM. Turning to `CN1[C@H](C2CCCCC2)CN(c2ccccc2)c2cc(F)c(-c3ccc(F)c(C(=O)O)c3)cc2S1(=O)=O` [Example 176], the EC50 was below 100 nM. Regarding `CN1[C@H](C2CCCCC2)CN(c2ccccc2)c2cc(OCc3cccs3)c(-c3ccc(F)c(C(=O)O)c3)cc2S1(=O)=O` [Example 335], the half-maximal effective concentration (EC50) was below 100 nM.

As to `CN1[C@H](C2CCCCC2)CN(CC2CC2)c2cc(Cl)c(-c3ccc(F)c(C(=O)O)c3)cc2S1(=O)=O` [Example 319, (R)-5-(7-chloro-3-cyclohexyl-5-(cyclopropylmethyl)-2-methyl-1,1-dioxido-2,3,4,5-tetrahydrobenzo[f][1,2,5]thiadiazepin-8-yl)-2-fluorobenzoic acid], the EC50 is 100 to 1000 nM. As for `CN1[C@H](C2CCCCC2)CNc2cc(-c3ccccc3F)c(-c3ccc(F)c(C(=O)O)c3)cc2S1(=O)=O` [Example 569, (R)-5-(3-cyclohexyl-7-(2-fluorophenyl)-2-methyl-1,1-dioxido-2,3,4,5-tetrahydrobenzo[f][1,2,5]thiadiazepin-8-yl)-2-fluorobenzoic acid], the figure is below 100 nM.

As to `CN1[C@H](C2CCCCC2)CN(c2ccccc2)c2cc(OC3CCCCC3)c(-c3ccc(F)c(C(=O)O)c3)cc2S1(=O)=O` [Example 374], the EC50 was below 100 nM. The figure for `CC(C)C[C@@H]1CN(C2CC(F)(F)C2)c2cc(Oc3ccccc3F)c(-c3ccc(F)c(C(=O)O)c3)cc2S(=O)(=O)N1C` [Example 466, (R)-5-(5-(3,3-difluorocyclobutyl)-7-(2-fluorophenoxy)-3-isobutyl-2-methyl-1,1-dioxido-2,3,4,5-tetrahydrobenzo[f][1,2,5]thiadiazepin-8-yl)-2-fluorobenzoic acid] is 100 to 1000 nM; for `CN1[C@H](C2CCCCC2)CN(c2ccccc2)c2cc(OCc3ccccc3C#N)c(-c3cc(F)c(C(=O)O)s3)cc2S1(=O)=O` [Example 510] it is below 100 nM; for `CC(=O)N1CCC(c2cc3c(cc2-c2ccc(F)c(C(=O)O)c2)S(=O)(=O)N(C)[C@H](C2CCCCC2)CN3c2ccccc2)CC1` [Example 597] it is above 1000 nM. The figure for `CC(=O)N1CCC(Oc2cc3c(cc2-c2ccc(F)c(C(=O)O)c2)S(=O)(=O)N(C)[C@H](C2CCCCC2)CN3c2ccccc2)CC1` [Example 395, (R)-5-(7-((1-acetylpiperidin-4-yl)oxy)-3-cyclohexyl-2-methyl-1,1-dioxido-5-phenyl-2,3,4,5-tetrahydrobenzo[f][1,2,5]thiadiazepin-8-yl)-2-fluorobenzoic acid] is 100 to 1000 nM; for `CN1[C@H](CN2CCCCC2)CN(c2ccccc2)c2cc(Cl)c(-c3ccc(F)c(C(=O)O)c3)cc2S1(=O)=O` [Example 108, (R)-5-(7-chloro-2-methyl-1,1-dioxido-5-phenyl-3-(piperidin-1-ylmethyl)-2,3,4,5-tetrahydrobenzo[f][1,2,5]thiadiazepin-8-yl)-2-fluorobenzoic acid] it is above 1000 nM; for `CCOC(=O)Nc1cc(-c2cc3c(cc2F)N(c2ccccc2)C[C@@H](C2CCCCC2)N(C)S3(=O)=O)sc1C(=O)O` [Example 265, (R)-5-(3-cyclohexyl-7-fluoro-2-methyl-1,1-dioxido-5-phenyl-2,3,4,5-tetrahydrobenzo[f][1,2,5]thiadiazepin-8-yl)-3-((ethoxycarbonyl)amino)thiophene-2-carboxylic acid] it is below 100 nM. As for `CN1[C@H](C2CCCCC2)CN(c2ccccc2)c2cc(Cl)c(-c3cc4c(c(C(=O)O)c3)OCO4)cc2S1(=O)=O` [Example 153, (R)-6-(7-chloro-3-cyclohexyl-2-methyl-1,1-dioxido-5-phenyl-2,3,4,5-tetrahydrobenzo[f][1,2,5]thiadiazepin-8-yl)benzo[d][1,3]dioxole-4-carboxylic acid], the figure is below 100 nM; as for `CN1[C@H](C2CCCCC2)CN(c2ccccc2)c2cc(Cl)c(-c3ccc4oncc4c3)cc2S1(=O)=O` [Example 202], 100 to 1000 nM; as for `CN1[C@H](C2CCCCC2)CN(c2ccccc2)c2cc(Cl)c(-c3cc(Cl)c(C(=O)O)s3)cc2S1(=O)=O` [Example 117], below 100 nM. As for `CC(C)CC1CN(c2ccccc2)c2cc(Cl)c(-c3cncc(C(=O)O)c3)cc2S(=O)(=O)N1C` (stereo not shown) [Example 35], the EC50 lay in the range of 100 to 1000 nM.
